Data set [1] is described as follows: Comparative dissolution profiles of azithromycin polymorph Ik vs. dihydrate, USP Method 2. The class given is physicochemical. Particulars: for percent dissolved: pH 6 (37° C.), USP Method 2. On the procedure: In order to compare the behavior in vitro of the fast dissolving azithromycin polymorph (Formula Ik) with the commercial azithromycin dihydrate product, dissolution profiles have been determined at pH 6.0 at 37° C. The comparative dissolution profiles were determined by USP Method 2, PharmaTest Dissolution Tester, PTW SII; the content of dissolved azithromycin was measured by HPLC.

The nature of data set [2]: Analysis of adverse events observed during human PK study. The format is in vivo.
Another data set can be described thus: clinical. Particulars: human, in vivo, 500 mg.
A short description of data set [3]: Human pharmacokinetic study, plasma concentration after GI site-specific administration of aqueous suspension. To be noted: 500 mg aqueous suspension; for ΔIa/dihydrate, AUC / ΔIa/dihydrate, Cmax: Ia relative to dihydrate.
Protocol: (§1) The test was an open, mono-centric, fasted human study. 6 human subjects were studied using a full cross-over experimental design experiment. […] This crossover experiment was repeated a total of three times by intubations of the test subjects: the first involved GI site-specific administration to the stomach, the second involved GI site-specific administration to the duodenum, and the third involved GI site-specific administration to the jejunum.
(§2) The kinetics parameters were determined model-independently and the parameters were determined directly from the measured concentrations.
Data set [4] is described as follows: Comparative dissolution profiles of azithromycin monohydrate Ia vs. dihydrate, USP Method 2. The class given is physicochemical. To be noted: pH 1.2, 3.0, 6.0 and 6.8, 37° C., 900 ml buffer, 100 rpm, FIGS. 1-4. On the procedure:
In order to compare the behavior in vitro of the fast dissolving azithromycin monohydrate (Formula Ia) with the commercial azithromycin dihydrate product, dissolution profiles have been determined at pH 1.2, pH 3.0, pH 6.0, and pH 6.8, at 37° C. The comparative dissolution profiles were determined in 900 ml buffer solution, at 100 rpm, by USP Method 2, PharmaTest Dissolution Tester, PTW SII; the content of dissolved azithromycin was measured by HPLC. The data thus obtained are plotted in FIGS. 1-4, respectively.

Data set [5] is described as follows: In vivo rat pharmacokinetic study, plasma and whole blood concentration time curves after p.o. administration. Particulars: rats, 50 mg/kg suspension; for ΔIa/dihydrate, Cmax / ΔIa/dihydrate, AUC(0-12): Ia relative to dihydrate; for ΔIa/dihydrate, AUC(0-12): monohydrate, 50 mg/kg.
Description: 32 animals (Wistar Han rats, fasted) were studied using a cross-over experimental design experiment. A non-compartmental analysis was used to determine the concentrations of the respective materials in whole blood and plasma as a function of time.
Setting [6] is: site-specific administration to duodenum.
Setting [7] is: site-specific administration to jejunum.
The mark [8] stands for this setting: site-specific administration to stomach.

What is called Cmax is the peak of the concentration-time curve.

Protocol for clinical: as §1, §2

As to `CC[C@H]1OC(=O)[C@H](C)[C@@H](O[C@H]2C[C@@](C)(OC)[C@@H](O)[C@H](C)O2)[C@H](C)[C@@H](O[C@@H]2O[C@H](C)C[C@H](N(C)C)[C@H]2O)[C@](C)(O)C[C@@H](C)CN(C)[C@H](C)[C@@H](O)[C@]1(C)O` [Azithromycin Dihydrate, 9-deoxo-9a-aza-9a-methyl-9a-homoerythromycin A dihydrate], the percent dissolved was determined as 14.5% in data set [1] (5 minutes, listed as Commercial 9-deoxo-9a-aza-9a-methyl-9a-homoerythromycin A Dihydrate, dihydrate); 27.3% in data set [1] (10 minutes, listed as Commercial 9-deoxo-9a-aza-9a-methyl-9a-homoerythromycin A Dihydrate, dihydrate); 44.2% in data set [1] (20 minutes, listed as Commercial 9-deoxo-9a-aza-9a-methyl-9a-homoerythromycin A Dihydrate, dihydrate); 69.1% in data set [1] (45 minutes, listed as Commercial 9-deoxo-9a-aza-9a-methyl-9a-homoerythromycin A Dihydrate, dihydrate). In data set [2] (human, in vivo), the “adverse events with a possible causal relationship” value is listed as 3 events. Further, in “clinical”, the concentration peaked (Cmax) at 94 ng/mL.
Take `CC[C@H]1OC(=O)[C@H](C)[C@@H](O[C@H]2C[C@@](C)(OC)[C@@H](O)[C@H](C)O2)[C@H](C)[C@@H](O[C@@H]2O[C@H](C)C[C@H](N(C)C)[C@H]2O)[C@](C)(O)C[C@@H](C)CN(C)[C@H](C)[C@@H](O)[C@]1(C)O` [Pseudopolymorph Ik, 9-deoxo-9a-aza-9a-methyl-9a-homoerythromycin A Pseudopolymorph Ik]: the percent dissolved is 99.8% in data set [1] (5 minutes), 99.9% in data set [1] (10 minutes), 97.1% in data set [1] (20 minutes) and 97.6% in data set [1] (45 minutes). In addition, the “dissolution profile compared to commercially available azithromycin dihydrate” value in data set [1] (pH 6.0, 37° C.) is reported as “dissolves faster”.
Regarding `CC[C@H]1OC(=O)[C@H](C)[C@@H](O[C@H]2C[C@@](C)(OC)[C@@H](O)[C@H](C)O2)[C@H](C)[C@@H](O[C@@H]2O[C@H](C)C[C@H](N(C)C)[C@H]2O)[C@](C)(O)C[C@@H](C)CN(C)[C@H](C)[C@@H](O)[C@]1(C)O.O` [azithromycin monohydrate], the entries for the “ΔIa/dihydrate, AUC” value in data set [3] (duodenum), in data set [3] (jejunum) and in data set [3] (stomach) were −13%, “+98%” and “+19%”, respectively. The “ΔIa/dihydrate, Cmax” value in data set [3] (duodenum) was “+10%”; in data set [3] (jejunum) it was “+60%”; in data set [3] (stomach) it was “+52%”; in data set [5] (plasma) it was “+37%”; in data set [5] (whole blood) it was “+97%”. The AUC in data set [3] (setting [6]) was determined as 719 nghr/ml; in data set [3] (setting [7]), 836 nghr/ml; in data set [3] (setting [8]), 813 nghr/ml. Also, the peak concentration (Cmax) in data set [3] (setting [6]) worked out at 129 ng/mL; in data set [3] (setting [7]), 99 ng/mL; in data set [3] (setting [8]), 143 ng/mL; in data set [5] (plasma) it was 1006 ng/mL; in data set [5] (whole blood), 5061 ng/mL. Moreover, in data set [4], the “dissolution profile compared to commercially available azithromycin dihydrate” value is recorded as “dissolves faster”. In addition, in data set [2] (human PK study, single dose administration of a comparable amount), the “incidence of adverse effects compared to azithromycin dihydrate product” value is “lower incidence of adverse effects”. Moreover, the “AUC(0-12)” value in data set [5] (plasma) came out at 5148 nghr/ml; in data set [5] (whole blood) it was 21204 nghr/ml. The “ΔIa/dihydrate, AUC(0-12)” value was approximately 29% in data set [5] (plasma, listed as azithromycin monohydrate Ia); “+29%” in data set [5] (plasma); “approximately 27%” in data set [5] (whole blood, listed as azithromycin monohydrate Ia); “+27%” in data set [5] (whole blood).

These data come from US7572773B2, “Single dose fast dissolving azithromycin” (Pliva Hrvatska D.O.O., priority 2003, dated 2009).
